Measurements taken from patent publication US10294202B2, “Pyrrolidinones as herbicides” (FMC Corporation, priority 2013, dated 2019).

What was measured:
foxtail, giant = assay: Test E preemergence herbicide test; type: in vivo, Setaria faberii; parameters: key: 0 = no effect, 100 = complete control
Description: (§1) Seeds of plant species selected from corn (Zea mays), soybean (Glycine max), velvetleaf (Abutilon theophrasti), lambsquarters (Chenopodium album), wild poinsettia (Euphorbia heterophylla), pigweed, palmer (palmer pigweed, Amaranthus palmeri), waterhemp (common waterhemp, Amaranthus rudis), surinam grass (Brachiaria decumbens), crabgrass, large (large crabgrass, Digitaria sanguinalis), crabgrass, Brazil (Brazilian crabgrass, Digitaria horizontalis), panicum, fall (fall panicum, Panicum dichotomiflorum), foxtail, giant (giant foxtail, Setaria faberii), foxtail, green (green foxtail, Setaria viridis), goosegrass (Eleusine indica), johnsongrass (Sorghum halepense), ragweed (common ragweed, Ambrosia elatior), barnyardgrass (Echinochloa crus-galli), sandbur (southern sandbur, Cenchrus echinatus), arrowleaf […] rhombifolia), ryegrass, Italian (Italian ryegrass, Lolium multiflorum), dayflower, VA (Virginia dayflower, Commelina virginica), field bindweed (Convolvulus arvensis), morningglory (Ipomoea coccinea), nightshade (eastern black nightshade, Solanum ptycanthum), kochia (Kochia scoparia), nutsedge, yellow (yellow nutsedge, Cyperus esculentus), cocklebur (common cocklebur, Xanthium strumarium), smartweed (ladysthumb smartweed, Polygonum Persicaria) and beggarticks (hairy beggarticks, Bidens pilosa), were planted into a silt loam soil and treated preemergence with test chemicals formulated in a non-phytotoxic solvent mixture which included a surfactant. Treated plants and controls were maintained in a greenhouse for 21 days, after which time all species were compared to controls and visually evaluated. Plant response ratings, summarized in Table E, are based on a scale of 0 to 100 where 0 is no effect and 100 is complete control. A dash (-) response means no test result.

nutsedge, yellow = assay: Test E preemergence herbicide test; type: in vivo, Cyperus esculentus; parameters: key: 0 = no effect, 100 = complete control
Description: as §1

kochia = assay: Test E preemergence herbicide test; type: in vivo, Kochia scoparia; parameters: key: 0 = no effect, 100 = complete control
Description: as §1

ryegrass, Italian = assay: Test E preemergence herbicide test; type: in vivo, Lolium multiflorum; parameters: key: 0 = no effect, 100 = complete control
Description: as §1

field bindweed = assay: Test E preemergence herbicide test; type: in vivo, Convolvulus arvensis; parameters: key: 0 = no effect, 100 = complete control
Description: as §1

crabgrass, large = assay: Test E preemergence herbicide test; type: in vivo, Digitaria sanguinalis; parameters: key: 0 = no effect, 100 = complete control
Description: as §1

nightshade = assay: Test E preemergence herbicide test; type: in vivo, Solanum ptycanthum; parameters: key: 0 = no effect, 100 = complete control
Description: as §1

canarygrass = assay: Test D pre-/postemergence herbicide test; type: in vivo, Phalaris minor; conditions: Preemergence; for Plant response rating, Canarygrass: scale 0 to 100 (0 no effect, 100 complete control)
Description: (§2) Seeds of plant species selected from bluegrass (annual bluegrass, Poa annua), blackgrass (Alopecurus myosuroides), canarygrass (littleseed canarygrass, Phalaris minor), chickweed (common chickweed, Stellaria media), galium (catchweed bedstraw, Galium aparine), bromegrass, downy (downy bromegrass, Bromus tectorum), field poppy (Papaver rhoeas), field violet (Viola arvensis), foxtail, green (green foxtail, Setaria viridis), deadnettle (henbit deadnettle, Lamium amplexicaule), ryegrass, Italian (Italian ryegrass, Lolium multiflorum), kochia (Kochia scoparia), lambsquarters (Chenopodium album), oilseed rape (Brassica napus), pigweed (Amaranthus retroflexus), chamomile (scentless chamomile, Matricaria inodora), Russian thistle (Salsola kali), speedwell (bird's-eye speedwell, Veronica persica), barley, spring (spring barley, Hordeum vulgare), wheat, spring (spring wheat, Triticum aestivum), buckwheat, wild (wild buckwheat, Polygonum convolvulus), mustard, wild (wild mustard, Sinapis arvensis), oat, wild (wild oat, Avena fatua), radish, wild (wild radish, Raphanus raphanistrum), […]), barley, winter (winter barley, Hordeum vulgare), and wheat, winter (winter wheat, Triticum aestivum) were planted into a silt loam soil and treated preemergence with test chemicals formulated in a non-phytotoxic solvent mixture which included a surfactant. At the same time, these species were planted in pots containing Redi-Earth® planting medium (Scotts Company, 14111 Scottslawn Road, Marysville, Ohio 43041) comprising spaghnum peat moss, vermiculite, wetting agent and starter nutrients and treated with postemergence applications of the test chemicals formulated in the same manner. Plants ranged in height from 2 to 18 cm (1- to 4-leaf stage). Treated plants and controls were maintained in a controlled growth environment for 7 to 21 days after which time all species were compared to controls and visually evaluated. Plant response ratings, summarized in Table D, are based on a scale of 0 to 100 where 0 is no effect and 100 is complete control. A dash (-) response means no test result.

buckwheat, wild = assay: Test D pre-/postemergence herbicide test; type: in vivo, Polygonum convolvulus; conditions: Preemergence; for Plant response rating, Buckwheat, Wild: scale 0 to 100 (0 no effect, 100 complete control)
Description: as §2

lambsquarters = assay: Test D pre-/postemergence herbicide test; type: in vivo, Chenopodium album; conditions: Preemergence; for Plant response rating, Lambsquarters: scale 0 to 100 (0 no effect, 100 complete control)
Summary of the method: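 Greenhouse pre- and postemergence screen with surfactant-containing non-phytotoxic solvent formulations. Silt loam soil served for preemergence application, and peat/vermiculite medium for postemergence application at 2–18 cm height. Visual 0–100 control ratings versus controls were recorded 7 to 21 days later.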

wheat, winter = assay: Test D pre-/postemergence herbicide test; type: in vivo, Triticum aestivum; conditions: Preemergence, scale 0 to 100 (0 no effect, 100 complete control)
Description: as §2

wheat, spring = assay: Test D pre-/postemergence herbicide test; type: in vivo, Triticum aestivum; conditions: Preemergence, scale 0 to 100 (0 no effect, 100 complete control)
Description: as §2

Row | SMILES | Plant response rating, Foxtail, Giant (foxtail, giant; 31 g ai/ha) | Plant response rating, Foxtail, Giant (foxtail, giant; 62 g ai/ha) | Plant response rating, Foxtail, Giant (foxtail, giant; 125 g ai/ha) | Plant response rating, Nutsedge, Yellow (nutsedge, yellow; 31 g ai/ha) | Plant response rating, Nutsedge, Yellow (nutsedge, yellow; 62 g ai/ha) | Plant response rating, Nutsedge, Yellow (nutsedge, yellow; 125 g ai/ha) | Plant response rating, Nutsedge, Yellow (nutsedge, yellow; 250 g ai/ha) | Plant response rating, Kochia (kochia; 31 g ai/ha) | Plant response rating, Kochia (kochia; 125 g ai/ha) | Plant response rating, Kochia (kochia; 250 g ai/ha) | Plant response rating, Ryegrass, Italian (ryegrass, Italian; 31 g ai/ha) | Plant response rating, Ryegrass, Italian (ryegrass, Italian; 62 g ai/ha) | Plant response rating, Ryegrass, Italian (ryegrass, Italian; 125 g ai/ha) | Plant response rating, Ryegrass, Italian (ryegrass, Italian; 250 g ai/ha) | Plant response rating, Field Bindweed (field bindweed; 31 g ai/ha) | Plant response rating, Field Bindweed (field bindweed; 62 g ai/ha) | Plant response rating, Field Bindweed (field bindweed; 125 g ai/ha) | Plant response rating, Field Bindweed (field bindweed; 250 g ai/ha) | Plant response rating, Crabgrass, Large (crabgrass, large; 31 g ai/ha) | Plant response rating, Crabgrass, Large (crabgrass, large; 62 g ai/ha) | also measured
1 | O=C1NCC(c2ccc(F)cc2)C1C(=O)Nc1ccccc1F (racemic) [Compound 16] | 0 | 15 | 25 | 0 | 0 | 0 | 0 | 0 | 0 | 0 | 0 | 0 | 0 | 30 | 0 | 0 | 0 | 0 | 20 | 30 | Plant response rating, Foxtail, Giant (foxtail, giant; 16 g ai/ha): 0; Plant response rating, Foxtail, Giant (foxtail, giant; 250 g ai/ha): 95; Plant response rating, Nutsedge, Yellow (nutsedge, yellow; 16 g ai/ha): 0; Plant response rating, Ryegrass, Italian (ryegrass, Italian; 16 g ai/ha): 0; Plant response rating, Field Bindweed (field bindweed; 16 g ai/ha): 0; Plant response rating, Crabgrass, Large (crabgrass, large; 16 g ai/ha): 10; Plant response rating, Crabgrass, Large (crabgrass, large; 125 g ai/ha): 75; Plant response rating, Crabgrass, Large (crabgrass, large; 250 g ai/ha): 98; Plant response rating, Nightshade (nightshade; 16 g ai/ha): 0; Plant response rating, Nightshade (nightshade; 31 g ai/ha): 0; Plant response rating, Nightshade (nightshade; 62 g ai/ha): 0; Plant response rating, Nightshade (nightshade; 125 g ai/ha): 0; Plant response rating, Nightshade (nightshade; 250 g ai/ha): 0
2 | O=C1NCC(c2cccc(Br)c2)C1C(=O)Nc1ccccc1F (centres unmarked) [Compound 66] | 0 | 0 | 98 | 0 | 0 | 0 | 0 | 0 | 0 | 0 | 0 | 0 | 0 | 0 | 0 | 0 | 0 | 0 | 10 | 75 | Plant response rating, Foxtail, Giant (foxtail, giant; 16 g ai/ha): 0; Plant response rating, Nutsedge, Yellow (nutsedge, yellow; 16 g ai/ha): 0; Plant response rating, Kochia (kochia; 16 g ai/ha): 0; Plant response rating, Kochia (kochia; 62 g ai/ha): 0; Plant response rating, Ryegrass, Italian (ryegrass, Italian; 16 g ai/ha): 0; Plant response rating, Field Bindweed (field bindweed; 16 g ai/ha): 0; Plant response rating, Crabgrass, Large (crabgrass, large; 16 g ai/ha): 0; Plant response rating, Crabgrass, Large (crabgrass, large; 125 g ai/ha): 90; Plant response rating, Crabgrass, Large (crabgrass, large; 250 g ai/ha): 98; Plant response rating, Nightshade (nightshade; 16 g ai/ha): 0; Plant response rating, Nightshade (nightshade; 31 g ai/ha): 0; Plant response rating, Nightshade (nightshade; 62 g ai/ha): 0; Plant response rating, Nightshade (nightshade; 250 g ai/ha): 0
3 | O=C1NCC(c2ccc(C(F)(F)F)cc2)C1C(=O)Nc1ccc(F)c(F)c1F (centres unmarked) [Compound 232] | 35 | 90 | 95 | 0 | 0 | 0 | 0 | 90 | 98 | 98 | 0 | 10 | 20 | 40 | 0 | 0 | 40 | 40 | 95 | 98 | Plant response rating, Foxtail, Giant (foxtail, giant; 250 g ai/ha): 98; Plant response rating, Kochia (kochia; 62 g ai/ha): 95; Plant response rating, Crabgrass, Large (crabgrass, large; 125 g ai/ha): 98; Plant response rating, Crabgrass, Large (crabgrass, large; 250 g ai/ha): 98; Plant response rating, Nightshade (nightshade; 31 g ai/ha): 25; Plant response rating, Nightshade (nightshade; 62 g ai/ha): 75; Plant response rating, Nightshade (nightshade; 125 g ai/ha): 98
4 | O=C1NCC(c2cccc(C(F)(F)F)c2)C1C(=O)Nc1cccc(F)c1F (centres unmarked) [Compound 241] |  |  |  |  |  |  |  |  |  |  |  |  |  |  |  |  |  |  |  |  | Plant response rating, Canarygrass (canarygrass; 31 g ai/ha): 20; Plant response rating, Canarygrass (canarygrass; 62 g ai/ha): 45; Plant response rating, Canarygrass (canarygrass; 125 g ai/ha): 65; Plant response rating (canarygrass; 250 g ai/ha, Canarygrass, scale 0 to 100): 75; Plant response rating, Buckwheat, Wild (buckwheat, wild; 31 g ai/ha): 15; Plant response rating, Buckwheat, Wild (buckwheat, wild; 62 g ai/ha): 15; Plant response rating, Buckwheat, Wild (buckwheat, wild; 125 g ai/ha): 20; Plant response rating (buckwheat, wild; 250 g ai/ha, Buckwheat, Wild, scale 0 to 100): 80; Plant response rating, Lambsquarters (lambsquarters; 31 g ai/ha): 85; Plant response rating, Lambsquarters (lambsquarters; 62 g ai/ha): 90; Plant response rating, Lambsquarters (lambsquarters; 125 g ai/ha): 90; Plant response rating (lambsquarters; 250 g ai/ha, Lambsquarters, scale 0 to 100): 90; Plant response rating, Wheat, Winter (wheat, winter; 31 g ai/ha): 0; Plant response rating, Wheat, Winter (wheat, winter; 62 g ai/ha): 5; Plant response rating, Wheat, Winter (wheat, winter; 125 g ai/ha): 10; Plant response rating, Wheat, Winter (wheat, winter; 250 g ai/ha): 25; Plant response rating, Wheat, Spring (wheat, spring; 31 g ai/ha): 0; Plant response rating, Wheat, Spring (wheat, spring; 62 g ai/ha): 0; Plant response rating, Wheat, Spring (wheat, spring; 125 g ai/ha): 25; Plant response rating, Wheat, Spring (wheat, spring; 250 g ai/ha): 40
